In brackets after ≈: the same amount, converted by molar mass.
Settings: buffer; pH 7.4; 200.0 µM

SMILES | solubility kinetic [µg/mL]
CN1CCN(C(=O)CC2(CC(=O)O)CCCC2)CC1.Cl | > 45.7
CN(C)/C=N/c1ncc(C(=O)c2ccc(-c3ccccc3)cc2)s1 | 1.1 (≈ 3.28 µM)
CCOC(=O)c1cc2cc(OCc3ccccc3)ccc2nc1C | < 0.7
Cc1ccc(C2CCN(C(=S)Nc3cccc(Cl)c3)C2)cc1 (stereo not drawn) | < 0.4
Brc1cc(Br)c2nc3c(cc2c1)CCC3 | 1.9 (≈ 5.81 µM)
CN(C)/C=C/c1[nH]c(=O)[nH]c(=O)c1[N+](=O)[O-] | > 33.9
Cc1cccc(OCCCCN2CCNCC2)c1 | 21.3 (≈ 85.8 µM)
COC(=O)NC1c2ccccc2Oc2ccccc21 | 0.7 (≈ 2.74 µM)
CC(C)CNc1nc(N)c([N+](=O)[O-])c(N2CCCCCC2)n1 | 4.5 (≈ 14.6 µM)
CC(C)c1nc(NCCO)c(C#N)c2c1CCCC2 | 9 (≈ 34.7 µM)
CCCCc1cc(C)c(S(=O)(=O)c2ccccc2C)c(=O)[nH]1 | 3.8 (≈ 11.9 µM)
Cc1ccc(NC(=S)N2CCCC2)cc1C | > 35.2
O=C(O)c1ccc(N=Cc2nc(-c3ccco3)oc2O)cc1 | > 44.7
Cc1[nH]c2ccccc2c1C(=O)CN1C(=O)C(=O)N(C2CCCC2)C1=O | 3.2 (≈ 9.06 µM)
O=C(c1c(F)cccc1F)N1CCN(CCOc2ccccc2)CC1 | > 52
O=C(Nc1ccccc1F)NC1CCCc2ccccc21 (stereo not drawn) | 2 (≈ 7.03 µM)
Cc1cc(NC(=O)c2ccc(NC(=O)C3CC3)cc2)no1 | 8.8 (≈ 30.8 µM)
O=C(NC1CCCCC1)c1cc(-c2ccccc2Cl)on1 | < 0.3
CN1CCN(CCc2nc3cc(NC(=O)c4ccco4)ccc3n2C)CC1 | > 55.1
Cc1ccc(C(O)Cn2cc([N+](=O)[O-])nc2C)cc1 (stereo not drawn) | > 39.2
CC(=O)c1sc2nc(CSc3nncn3C)[nH]c(=O)c2c1C | > 50.3
Cc1cc(N2CCN(C(=O)Nc3ccc(F)cc3F)CC2)c2ccccc2n1 | > 57.4
O=C1CC(NC(=O)C(F)(F)F)c2cc3c(cc21)OCO3 (stereo not drawn) | 42.3 (≈ 147 µM)
Oc1ccc(NC(=S)Nc2ccc(F)cc2)cc1 | 33.2 (≈ 127 µM)

SMILES | solubility kinetic [µg/mL]
Cc1ccccc1NS(=O)(=O)c1cccc2nonc12 | > 43.4
CNc1nc(Cl)c(SC)c(NCc2cccc(OC)c2)n1 | 1 (≈ 3.08 µM)
CC1CC(CN)CC(CO)C1 (stereo not drawn) | > 23.6
COc1ccc(N=Cc2cc(Cl)ccc2O)cc1Cl | 18 (≈ 60.8 µM)
CCOc1cccc2sc(=NC(=O)c3ccco3)n(CC(=O)OC)c12 | 2 (≈ 5.55 µM)
O=C(COC(=O)c1ccc(Cl)nc1)NCCC1=CCCCC1 | 36.6 (≈ 113 µM)
FC(F)(F)c1ccc(-n2cnc3ccccc32)nc1 | 13.5 (≈ 51.3 µM)
Cc1nn(CCCC(=O)Nc2cccnc2Cl)c(C)c1[N+](=O)[O-] | > 50.7
O=C(Cn1cc([N+](=O)[O-])ccc1=O)NC1CCCCC1 | > 41.9
O=C(COC(=O)Cc1ccc([N+](=O)[O-])cc1)NCc1ccc2c(c1)OCO2 | 55.5 (≈ 149 µM)
CCc1ccccc1NC(=O)CCS(=O)(=O)c1ccc(C)cc1 | > 49.7
CC(C)CCc1noc(CN(CC2CCC2)CC2CCCO2)n1 (stereo not drawn) | 11.9 (≈ 37 µM)
Cc1ccc(C(=O)N2CCN(C(=O)C3CCCO3)CC2)cc1 (stereo not drawn) | > 45.4
Cc1ccc(C(=O)CN2CCN(c3ccccn3)CC2)c(C)c1 | 25.5 (≈ 82.4 µM)
O=C(Cc1c(F)cccc1Cl)NCc1cccnc1 | > 41.8
On1c(-c2ccccc2)nc2ccccc21 | > 31.5
CC(CCc1ccccc1)NC(=O)COC(=O)c1cccnc1Cl (stereo not drawn) | > 52
COc1ccc(NC2c3ccccc3C(=O)N2c2cccnc2)cc1 (stereo not drawn) | > 49.7
CNC(=O)COC(=O)/C=C/c1nc2ccccc2s1 | > 41.4
CC(OC(=O)c1ccco1)C(=O)Nc1nc(-c2ccccc2)cs1 (stereo not drawn) | 4.5 (≈ 13.1 µM)
CC(=O)c1c(C(C)=O)c(C)n(-c2cccc3cccnc23)c1C | > 46
CN(Cc1ccccc1Cl)C(=O)c1cnccc1C(F)(F)F | > 49.3
COc1ccccc1CNc1ccc(N2CCCCC2)cc1 | 30 (≈ 101 µM)
Cc1cccc(NC(=O)c2ccc3c(c2)CCN3S(C)(=O)=O)c1C | 1.6 (≈ 4.65 µM)

SMILES | solubility kinetic [µg/mL]
O=C(Nc1nccs1)c1cc([N+](=O)[O-])ccc1Cl | 3.7 (≈ 13 µM)
O=C(COC(=O)/C=C/c1cccc(F)c1)Nc1cccc(S(=O)(=O)NC2=NCCCCC2)c1 | 18.3 (≈ 38.6 µM)
CCOC(=O)COc1nc2c(c(-c3ccco3)c1C#N)CCc1ccccc1-2 | 1.5 (≈ 4.01 µM)
Cc1cc(C)c(C)c(S(=O)(=O)NCc2ccncc2)c1C | 25.8 (≈ 84.8 µM)
COc1ccc(C)cc1C(=O)CCC(=O)NC1CCCCC1 | 21.2 (≈ 69.9 µM)
Cc1cc(C)c(C(=O)N2CCC3(CC2)OCCO3)c(C)c1 | > 43.4
CC(C)CN1C(=O)c2ccc(NC(=O)C3CC3)cc2C1=O | 0.5 (≈ 1.75 µM)
CC1CC(C)CN(C(=O)C(Cc2ccccc2)n2cccc2)C1 (stereo not drawn) | 4.4 (≈ 14.2 µM)
CC(C)(C)C(=O)N(Cc1ccc(Cl)cc1)Cc1cccnc1 | 42.6 (≈ 134 µM)
CCOC(=O)c1c(C)[nH]c(C)c1S(=O)(=O)N1CCOCC1 | > 47.5
O=C(NC1CCN(Cc2ccc3ccccc3c2)CC1)c1ccccc1 | 2.8 (≈ 8.13 µM)
COc1ccc(OC)c(NC(=O)c2cc3c(cc2Cl)N2CCCCCC2=NS3(=O)=O)c1 | 3.7 (≈ 7.98 µM)
O=C(Nc1cccc(-c2nc3ccccc3[nH]2)c1)c1ccccn1 | 6.2 (≈ 19.7 µM)
COc1ccccc1N1CCN(C(=O)c2cccc(S(=O)(=O)Nc3ccccc3F)c2)CC1.Cl | > 75.9
Cl.Nc1ccc(CCN2CCCC2)cc1 | 34.7
CS(=O)(=O)N(CC(=O)Nc1ccc(Br)cc1)C1CCCCC1 | 55.5 (≈ 143 µM)
Cl.O=C(NC12CC3CC(CC(C3)C1)C2)OC1CN2CCC1CC2 (stereo not drawn) | 47.7
CCc1nc(N)nc(N)c1-c1ccc(Cl)cc1 | > 37.3
COc1ccc2c(c1)c(C(=O)CN1CCCCC1)c(C)n2C | 44.3 (≈ 147 µM)
S=C(Nc1cccc(Cl)c1)N1CCN(c2ccccn2)CC1 | 0.5 (≈ 1.5 µM)
O=C(NC(=S)Nc1ccccc1CO)C1CCCCC1 | > 43.9
CC(C)(C)C(=O)OCc1nc(-c2ccc3c(c2)OCCO3)cs1 | < 0.7
COc1cccc(C2NC(=O)CCC2[N+](=O)[O-])c1OC (stereo not drawn) | 39.4 (≈ 141 µM)
COc1ccc(C2NC(=O)CCC2[N+](=O)[O-])c(OC)c1 (stereo not drawn) | > 42

SMILES | solubility kinetic [µg/mL]
CSc1nsc(SCC(=O)Nc2ccccc2F)n1 | 38 (≈ 120 µM)
O=C(COC(=O)c1ccncc1)Nc1cccc2ccccc12 | 40.3 (≈ 132 µM)
COc1ccccc1NC(=O)COc1cccnc1[N+](=O)[O-] | 4.3 (≈ 14.2 µM)
O=C(CCNS(=O)(=O)c1ccc(F)c(F)c1)NCCN1CCOCC1 | > 56.6
COC(=O)c1ccc(=O)n(CC(=O)c2ccc(Cl)cc2)c1 | > 45.9
Cc1cccc(NC(=O)C(Cc2ccccc2)n2cccc2)c1 (stereo not drawn) | 11.6 (≈ 38.1 µM)
O=C(NC1CCCCC1)C(=S)N1CCCC1 | > 36.1
CN1C(=S)SC(/[N+]([O-])=C/c2c(F)cccc2Cl)C1(C)C (stereo not drawn) | > 49.9
CCCOc1cccc(C(=O)NCCNC(=O)c2ccccn2)c1 | > 49.1
N#Cc1ccc(S(=O)(=O)NC2CCCCNC2=O)cc1 (stereo not drawn) | > 44
O=C(Cc1ccc(Cl)cc1)Nc1ccccn1 | > 37
O=C(c1ccc(F)cc1)N1CCN(c2ccc([N+](=O)[O-])cc2-n2cccc2)CC1 | 3.3 (≈ 8.37 µM)
Oc1[nH]c2ccccc2c1C=Nc1ccccc1 | 0.7 (≈ 2.96 µM)
COc1cccc(CNC(=O)CCCC(=O)NC(C)CCc2ccccc2)c1 (stereo not drawn) | > 57.4
O=S(=O)(c1ccc(Cl)cc1Cl)N1CCCC1c1cccnc1 (stereo not drawn) | > 53.6
COc1ccccc1/C=C/C(=O)NC(=S)N1CCN(C)CC1 | > 47.9
N#Cc1ccccc1NC(=O)CN1CC=C(c2ccccc2)CC1 | 15.7 (≈ 49.5 µM)
O=C(CN1C(=O)NC2(CCCCCCC2)C1=O)NCc1ccccc1 | 47.7 (≈ 139 µM)
Cc1ccc(S(=O)(=O)NC(=O)c2ccccc2F)cc1 | > 44
CC(C)CCNC(=O)NC(=O)CSc1ncccn1 | 28.9 (≈ 102 µM)
C=CCNc1oc(-c2cccs2)nc1S(=O)(=O)c1ccccc1 | 16.8 (≈ 48.5 µM)
C/C(=N/OC(=O)c1cccc(C(F)(F)F)c1)c1cnccn1 | 3.5 (≈ 11.3 µM)
CCCn1c(N)c(C(=O)COC(=O)/C=C/c2ccc(OC(F)F)c(OC)c2)c(=O)[nH]c1=O | 9 (≈ 19.9 µM)
Cc1c([N+](=O)[O-])c(C(=O)NC2CCCCC2)nn1C | > 39.9

SMILES | solubility kinetic [µg/mL]
O=C(CC1CCCCC1)NCc1ccc(Cl)cc1 | 2.4 (≈ 9.03 µM)
CC(=O)Nc1ccc(S(=O)(=O)Nc2cc(Cl)ccc2N2CCOCC2)cc1 | > 61.5
O=C(COc1ccccc1[N+](=O)[O-])NCCC1=CCCCC1 | 31.8 (≈ 104 µM)
COc1ccc(CC(=O)Nc2ccc(OC(C)=O)cc2C(=O)O)cc1 | > 51.5
COc1ccc(C(=O)N2CCC(C(=O)NC3CC3)CC2)cc1 | > 45.4
N#CCSc1nc2ccccc2c(=O)n1CCCC(=O)NCc1ccco1 | 2.5 (≈ 6.54 µM)
Cc1ccc(CC2C(=O)N(c3ccccc3)C(=O)C2C)cc1 (stereo not drawn) | 7.6 (≈ 25.9 µM)
CCC1=NC(c2ccc(Br)cc2)N(O)C1(C)C (stereo not drawn) | 41 (≈ 138 µM)
COc1ccc([N+](=O)[O-])cc1NC(=O)C1CCCNC1=O (stereo not drawn) | 19.1 (≈ 65.1 µM)
Cc1ccc(-c2nc(C#N)c(N3CCC(C(N)=O)CC3)o2)cc1 | 1.6 (≈ 5.16 µM)
Cc1cc(N2CC(C(=O)Nc3nccs3)CC2=O)ccc1C(C)C (stereo not drawn) | 1.4 (≈ 4.08 µM)
Cc1cc(C)c(OCCN(C)C)c(Cl)c1.O=C(O)C(=O)O | > 47.7
CC(=O)c1ccccc1NC(=O)c1ccc(OCc2c(C)noc2C)cc1 | 2.6 (≈ 7.13 µM)
Cc1ccc(S(=O)(=O)C2(C(=O)NC3CCCCC3C)CC2)cc1 (stereo not drawn) | 37.3 (≈ 111 µM)
COc1ccc(NC(=O)c2cnc(SC)nc2C)c(OC)c1 | > 47.9
COC(=O)c1ccc(OCC(O)CN2CCOCC2)cc1 (stereo not drawn) | > 44.3
CN1CCN(C(=O)c2cc3cc(F)ccc3[nH]2)CC1 | > 39.2
CC(=O)c1c(C)[nH]c(C(=O)Nc2ccccc2Cl)c1C | 2.7 (≈ 9.29 µM)
COc1ccccc1NS(=O)(=O)c1ccc(C(=O)NCC(c2cccs2)N2CCOCC2)cc1 (stereo not drawn) | 20 (≈ 39.9 µM)
CC(C)CC(=O)Nc1cc2c3c(c1)C(C)C(=O)N3CCC2 (stereo not drawn) | > 43
CCOC(=O)c1ccc(NC(=O)NCCc2cnc[nH]2)cc1 | > 45.3
Nc1c(C(=O)N2CCCC2)sc2nc3c(cc12)CCCCCC3 | 3.2 (≈ 9.71 µM)
